Measured values reported in US9770026B2, “Substituted pyrimidine compound and uses thereof” (Shenyang Sinochem Agrochemicals R&D Co., Ltd., priority 2012, dated 2017).

Legend:
[1] = test system: Green peach aphids (Myzus Persicae Sulzer); test: bioactivity test against green peach aphid, airbrush foliar spray; assay type: in vivo; conditions: Myzus persicae, foliar, 48 h; for pest or weed control at 5 µg/mL: 5 mg/L; for pest or weed control at 10 µg/mL: 10 mg/L; for pest or weed control at 100 µg/mL: 100 mg/L; for pest or weed control at 600 µg/mL: 600 mg/L
Method in brief: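 Death rate was scored at 48 hrs, held at 25±1 C and 60±5% RH, following airbrush foliar spray (0.5 mL, 10 psi) onto cabbage leaf discs bearing about 15-30 aphids. Test solutions: compound dissolved in 1:1 acetone:methanol, brought to concentration with 0.1% tween 80 water.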

[2] = test system: armyworm; test: bioactivity test against armyworm, airbrush spray; assay type: in vivo; conditions: 72 h; for pest or weed control at 10 µg/mL: 10 mg/L; for pest or weed control at 10 µg/mL / pest or weed control at 100 µg/mL / pest or weed control at 600 µg/mL: read-out: Insecticidal activity against armyworm (%); for pest or weed control at 100 µg/mL: 100 mg/L; for pest or weed control at 600 µg/mL: 600 mg/L
[3] = test system: rice blast; test: microbe, parasite or virus in culture; assay type: cell-based; conditions: Pyricularia oryzae; for inhibition at 8.3 ppm: read-out: inhibition rate against rice blast, 8.3 ppm, in vitro; for inhibition at 25 ppm: read-out: inhibition rate against rice blast, 25 ppm, in vitro
[4] = test system: corn rust; test: protectant activity in vivo against corn rust; conditions: Zea mays, 168 h; for pest or weed control at 25 µg/mL: read-out: control effect against corn rust (%), 25 mg/L; for pest or weed control at 25 µg/mL / pest or weed control at 100 µg/mL / pest or weed control at 400 µg/mL: protectant activity; for pest or weed control at 100 µg/mL: read-out: control effect against corn rust (%), 100 mg/L; for pest or weed control at 400 µg/mL: read-out: control effect against corn rust (%), 400 mg/L; for pest or weed control at 25 ppm: read-out: protectant activity against corn rust in vivo, 25 ppm; for pest or weed control at 100 ppm: read-out: protectant activity against corn rust in vivo, 100 ppm; for pest or weed control at 400 ppm: read-out: protectant activity against corn rust in vivo, 400 ppm
[5] = concentration of 50 ppm; cited from earlier work
[6] = concentration of 400 and 100 ppm; cited from earlier work
[7] = test system: wheat powdery mildew; test: protectant activity in vivo against wheat powdery mildew; conditions: Triticum aestivum, 168 h; for pest or weed control at 400 µg/mL: read-out: control effect against wheat powdery mildew (%), 400 mg/L; for pest or weed control at 400 ppm: read-out: protectant activity against wheat powdery mildew in vivo, 400 ppm
[8] = test system: cucumber gray mold; test: fungicidal activity in vitro (inhibition rate) against cucumber gray mold; assay type: cell-based; conditions: 25 ppm, in vitro; read-out: inhibition rate against cucumber gray mold
[9] = test system: cucumber downy mildew; test: protectant activity in vivo against cucumber downy mildew; conditions: Cucumis sativus, 168 h; for pest or weed control at 100 ppm: read-out: protectant activity against cucumber downy mildew in vivo, 100 ppm; for pest or weed control at 400 ppm: read-out: protectant activity against cucumber downy mildew in vivo, 400 ppm; for pest or weed control at 25 µg/mL: read-out: control effect against cucumber downy mildew (%), 25 mg/L; for pest or weed control at 50 µg/mL: read-out: control effect against cucumber downy mildew (%), 50 mg/L; for pest or weed control at 100 µg/mL: read-out: control effect against cucumber downy mildew (%), 100 mg/L; for pest or weed control at 400 µg/mL: read-out: control effect against cucumber downy mildew (%), 400 mg/L
[10] = test system: Diamond back moth; test: insecticidal activity against diamond back moth, airbrush spray; assay type: in vivo; conditions: 72 h; for pest or weed control at 600 µg/mL: 600 mg/L
Method in brief: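 Airbrush leaf-disc spray test: both faces of 2 cm cabbage discs received 0.5 ml of test solution at 0.7 kg/cm^2. Solutions were made in acetone:methanol (1:1) and brought to concentration with 0.1% Tween 80 in water. Ten second-instar larvae per disc, triplicates, were held at 25° C and 60˜70% R.H., with mortality recorded at 72 hrs.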

[11] = test system: carmine spider mite; test: bioactivity test against carmine spider mite, airbrush spray; assay type: in vivo; conditions: Tetranychus cinnabarinus, 72 h; for pest or weed control at 600 µg/mL: 600 mg/L
Method in brief: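 Broadbean seedlings infested with adult mites were sprayed with compound (acetone/methanol stock diluted in 0.1% Tween 80 water) by airbrush at 0.7 kg/cm^2, 0.5 ml. Three replicates were run. Mortality was scored after 72 hrs.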

[12] = contrastive test, read-out: Insecticidal activity against peach aphid (%)
[13] = contrastive test, read-out: Insecticidal activity against carmine spider mite (% )

Compound: Clc1ccc(Oc2ccc(CCNc3ncnc4ccccc34)cn2)cc1 [CK18, reference compound]
- pest or weed control at 2.5 µg/mL ([1]; 2.5 mg/L, contrastive test, read-out: Insecticidal activity against peach aphid (%)): 0%
- pest or weed control at 5 µg/mL [1, 12]: 7%
- pest or weed control at 10 µg/mL [1, 12]: 51%
- pest or weed control at 100 µg/mL [1, 12]: 71%
- pest or weed control at 600 µg/mL [1, 12]: 100%
- pest or weed control at 10 µg/mL [2]: 14%
- pest or weed control at 100 µg/mL [2]: 43%
- pest or weed control at 600 µg/mL [2]: 100%
- inhibition at 8.3 ppm [3]: 0%
- pest or weed control at 25 µg/mL [4]: 0%
- pest or weed control at 100 µg/mL [4]: 30%
- pest or weed control at 400 µg/mL [4]: 80%
- insectcidal activity [5]: good insectcidal activity
- fungicidal activity [6]: good fungicidal activity

Compound: FC(F)(F)c1ccc(Oc2ccc(CCNc3ncnc4ccccc34)cn2)cc1 [CK19, reference compound]
- pest or weed control at 10 µg/mL [1, 12]: 33%
- pest or weed control at 100 µg/mL [1, 12]: 86%
- pest or weed control at 600 µg/mL [1, 12]: 100%
- pest or weed control at 10 µg/mL [2]: 7%
- pest or weed control at 100 µg/mL [2]: 25%
- pest or weed control at 600 µg/mL [2]: 86%
- inhibition at 8.3 ppm [3]: 0%
- pest or weed control at 100 µg/mL ([7]; read-out: control effect against wheat powdery mildew (%), 100 mg/L, protectant activity): 0%
- pest or weed control at 400 µg/mL ([7]; protectant activity): 50%
- pest or weed control at 100 µg/mL [4]: 0%
- pest or weed control at 400 µg/mL [4]: 70%
- insectcidal activity [5]: good insectcidal activity
- fungicidal activity [6]: good fungicidal activity

Compound: COc1cc(OC)nc(Oc2ccc(CCNc3ncnc(C)c3Cl)cc2)n1 [Compound I-4757]
- inhibition at 25 ppm [8]: 100%
- inhibition at 25 ppm [3]: 80 to 99%
- pest or weed control at 400 ppm [7]: 100%
- pest or weed control at 25 ppm [4]: 80 to 99%
- pest or weed control at 100 ppm [4]: 100%
- pest or weed control at 400 ppm [4]: 100%
- melting point: 119 to 120 °C
- pest or weed control at 100 ppm [9]: 100%
- pest or weed control at 400 ppm [9]: 100%

Compound: Cc1ncnc(NCCc2ccc(Oc3ccc(Cl)cc3)nc2)c1Cl [III-7]
- pest or weed control at 5 µg/mL [1, 12]: 88%
- pest or weed control at 10 µg/mL [1, 12]: 90%
- pest or weed control at 100 µg/mL [1, 12]: 100%
- pest or weed control at 600 µg/mL [1, 12]: 100%
- pest or weed control at 10 ppm ([1]; 10 ppm, death rate after 48 hrs): 80 to 99%
- pest or weed control at 100 ppm ([1]; 100 ppm, death rate after 48 hrs): 100%
- pest or weed control at 600 ppm ([1]; 600 ppm, death rate after 48 hrs): 100%
- inhibition at 25 ppm [8]: 80 to 99%
- pest or weed control at 600 ppm ([2]; 600 ppm, mortality after 72 h): 100%
- inhibition at 0.1 ppm ([3]; read-out: inhibition rate against rice blast, 0.1 ppm, in vitro): 100%
- inhibition at 0.3 ppm ([3]; read-out: inhibition rate against rice blast, 0.3 ppm, in vitro): 100%
- inhibition at 0.9 ppm ([3]; read-out: inhibition rate against rice blast, 0.9 ppm, in vitro): 100%
- inhibition at 2.8 ppm ([3]; read-out: inhibition rate against rice blast, 2.8 ppm, in vitro): 100%
- inhibition at 8.3 ppm [3]: 100%
- inhibition at 25 ppm [3]: 100%
- pest or weed control at 100 ppm ([7]; read-out: protectant activity against wheat powdery mildew in vivo, 100 ppm): 80 to 99%
- pest or weed control at 400 ppm [7]: 100%
- pest or weed control at 25 µg/mL [4]: 100%
- pest or weed control at 100 µg/mL [4]: 100%
- pest or weed control at 400 µg/mL [4]: 100%
- pest or weed control at 25 ppm [4]: 100%
- pest or weed control at 100 ppm [4]: 100%
- pest or weed control at 400 ppm [4]: 100%
- pest or weed control at 3.125 µg/mL ([9]; read-out: control effect against cucumber downy mildew (%), 3.125 mg/L, protectant activity): 100%
- pest or weed control at 6.25 µg/mL ([9]; read-out: control effect against cucumber downy mildew (%), 6.25 mg/L, protectant activity): 100%
- pest or weed control at 12.5 µg/mL ([9]; read-out: control effect against cucumber downy mildew (%), 12.5 mg/L, protectant activity): 100%
- pest or weed control at 25 µg/mL ([9]; protectant activity): 100%
- pest or weed control at 50 µg/mL ([9]; protectant activity): 100%
- pest or weed control at 100 µg/mL ([9]; protectant activity): 100%
- pest or weed control at 400 µg/mL ([9]; protectant activity): 100%
- pest or weed control at 6.25 ppm ([9]; read-out: protectant activity against cucumber downy mildew in vivo, 6.25 ppm): 100%
- pest or weed control at 12.5 ppm ([9]; read-out: protectant activity against cucumber downy mildew in vivo, 12.5 ppm): 100%
- pest or weed control at 25 ppm ([9]; read-out: protectant activity against cucumber downy mildew in vivo, 25 ppm): 100%
- pest or weed control at 50 ppm ([9]; read-out: protectant activity against cucumber downy mildew in vivo, 50 ppm): 100%
- pest or weed control at 100 ppm [9]: 100%
- pest or weed control at 400 ppm [9]: 100%
- pest or weed control at 100 ppm ([10]; 100 ppm, mortality after 72 hrs, read-out: control (test results against diamond back moth)): 80 to 99%
- pest or weed control at 600 ppm ([10]; 600 ppm, mortality after 72 hrs, read-out: control (test results against diamond back moth)): 100%
- pest or weed control at 100 µg/mL ([11]; 100 mg/L, contrastive test, read-out: Insecticidal activity against carmine spider mite (% )): 100%
- pest or weed control at 600 µg/mL [11, 13]: 100%
- pest or weed control at 100 ppm ([11]; 100 ppm, mortality after 72 hrs): 100%
- pest or weed control at 600 ppm ([11]; 600 ppm, mortality after 72 hrs): 100%

Compound: CCc1ncnc(NC(=O)Cc2ccc(Oc3ccc(C(F)(F)F)cn3)cc2)c1Cl [CK55, reference compound]
- pest or weed control at 600 µg/mL [1, 12]: 0%
- inhibition at 25 ppm [8]: 0%
- pest or weed control at 600 µg/mL [2]: 0%
- inhibition at 25 ppm [3]: < 50%
- pest or weed control at 400 µg/mL ([7]; protectant activity): 60%
- pest or weed control at 400 µg/mL [4]: 0%
- pest or weed control at 25 µg/mL ([9]; protectant activity): 0%
- pest or weed control at 50 µg/mL ([9]; protectant activity): 0%
- pest or weed control at 100 µg/mL ([9]; protectant activity): 0%
- pest or weed control at 400 µg/mL ([9]; protectant activity): 100%
- pest or weed control at 600 µg/mL [10]: 0%
- pest or weed control at 600 µg/mL [11, 13]: 0%

Compound: Cc1ncnc(NC(=O)Cc2ccc(Oc3ncc(C(F)(F)F)cc3Cl)cc2)c1Cl [CK60, reference compound]
- pest or weed control at 10 µg/mL [1, 12]: 0%
- pest or weed control at 100 µg/mL [1, 12]: 0%
- pest or weed control at 600 µg/mL [1, 12]: 81%
- inhibition at 25 ppm [8]: 0%
- pest or weed control at 600 µg/mL [2]: 0%
- inhibition at 25 ppm [3]: 0%
- pest or weed control at 400 µg/mL ([7]; protectant activity): 0%
- pest or weed control at 400 µg/mL [4]: 0%
- pest or weed control at 25 µg/mL ([9]; protectant activity): 0%
- pest or weed control at 50 µg/mL ([9]; protectant activity): 0%
- pest or weed control at 100 µg/mL ([9]; protectant activity): 10%
- pest or weed control at 400 µg/mL ([9]; protectant activity): 100%
- pest or weed control at 10 µg/mL ([10]; 10 mg/L): 15%
- pest or weed control at 100 µg/mL ([10]; 100 mg/L): 25%
- pest or weed control at 600 µg/mL [10]: 86%
- pest or weed control at 600 µg/mL [11, 13]: 0%

Compound: Cc1ncnc(NCc2ccc(Oc3nc(Cl)c(Cl)cc3Cl)cc2)c1Cl [CK33, reference compound]
- pest or weed control at 600 µg/mL [1, 12]: 0%
- inhibition at 25 ppm [8]: 0%
- pest or weed control at 10 µg/mL [2]: 0%
- pest or weed control at 100 µg/mL [2]: 0%
- pest or weed control at 600 µg/mL [2]: 100%
- inhibition at 25 ppm [3]: < 50%
- pest or weed control at 400 µg/mL ([7]; protectant activity): 0%
- pest or weed control at 400 µg/mL [4]: 0%
- pest or weed control at 400 µg/mL ([9]; protectant activity): 0%
- pest or weed control at 600 µg/mL [10]: 29%
- pest or weed control at 600 µg/mL [11, 13]: 41%
